US20230332145A1, “BIFUNCTIONAL MOLECULES AND METHODS OF USING THEREOF” (Flagship Pioneering, Inc., priority 2020, published 2023)
In the oligonucleotide strings, read from the 5' end, every base follows the letter of its sugar. An asterisk marks phosphorothioate; unmarked linkages are phosphodiester. Other units and linkages are bracketed, terminal groups are in braces. A string of capitals states the bases alone. e = 2'-O-(2-methoxyethyl) (MOE); [5mC] = 5-methylcytosine

How the values were obtained:
[1] = test system: BET family of bromodomain proteins; details: cited from earlier work
[2] = test system: MYC expression; assay: MYC expression by qPCR after RNAiMax transfection of HEK293T cells; format: cell-based, human; details: for MYC expression change, linker comparison: 400 to 3.125 nM
Method: HEK293T cells were seeded at 30k cells/well in a 96 well tissue culture vessel day before transfection. […] Transfected cells were allowed to recover and were harvested after 24 hours. MYC expression was measured by RNA level using qPCR analysis after transfection with each of the bi-functional molecule or control molecules. Cell samples for qPCR analysis were prepared by Cells to Ct 1 Step TaqMan Kit (ThermoFisher A25602) following manufractuer’s recommendations. qPCR assays were performed using Cells to Ct qPCR master mix, gene specific TaqMan probe (ThermoFisher), and Cells to Ct cell lysate. Relative levels of MYC were normalized to β-actin as a stably expressed control. MYC TaqMan probe: ThermoFisher Assay ID Hs00153408_ml; ACTB TaqMan probe: ThermoFisher Assay ID Hs01060665_g1. During qPCR amplification, FAM fluorescence intensity for each target gene was recorded by QuantStudio7 qPCR instrument (ThermoFisher Scientific) as a measurement of the amount of double-stranded DNA produced during each PCR cycle. Ct values for each gene in each sample were computed by the instrument software based on the amplification curves, and used to determine relative expression values for target and β-actin in each sample.

[3] = test system: MYC protein; assay: MYC protein, FRET based ELISA (Human c-Myc Cell-based kit) in HEK293T cells; details: 200 nM, 24 hours
Method: PVT1 ASO1-JQ1 and control molecules were transfected to HEK293T cells at 400, 200, 100, and 50 nM with RNAiMax. PVT1 ASO1-JQ1:RNAiMax ratios in transfection are: 400 nM: 1.2 ul, 200 nM:0.6 ul, 100 nM:0.3 ul, 50 nM:0.15 ul. Cells were harvested 24 hours after transfection and MYC expression changes was monitored by qPCR and by enzyme-linked immunosorbent assay (ELISA). […] For a fluorescence resonance energy transfer (FRET) based ELISA assays, cell samples were prepared by Human c-Myc Cell-based kit (Cisbio # 63ADK053PEH) following manufractuer’s recommendation. MYC protein is detected in a sandwich assay using two specific antibodies, labeled with Europium Cryptate (donor) and with d2 (acceptor). FRET signal was read with Varioskan LUX Multimode Microplate Reader (ThermoFisher) with a 6 hr kinetic read.

[4] = test system: SCN1A expression; assay: SCN1A expression by qPCR after transfection of SK-N-AS cells; format: cell-based, human; details: 100 to 3.125 nM, 48 hours
Method: SCN1A-ASO1 shown in Table 5A was designed against the exonic region of SCN1A mRNA. SCN1A ASO1-Linker1-JQ1 was transfected to SK-N-AS cells at 100, 50, 25, 12.5, 6.25, and 3.125 nM with RNAiMax. SCN1A ASO1-JQ1:RNAiMax ratios in transfection were: 100 nM:0.3 ul, 50 nM and below:0.15 ul. Cells were harvested 48 hours after transfection and SCN1A expression changes were monitored by qPCR. TaqMan probe used in the assay for quantitation: SCN1A Hs00374696_ml (ThermoFisher), GAPDH Hs02786624_g1 (ThermoFisher).
SCN1A ASO1-Linker1-iBET762 was transfected to SK-N-AS cells at 100, 50, 25, 12.5, 6.25, and 3.125 nM with RNAiMax. SCN1A ASO1-iBET762:RNAiMax ratios in transfection are: 100 nM:0.3 ul, 50 nM and below:0.15 ul. Cells were harvested 48 hours after transfection and SCN1A expression changes were monitored by qPCR. TaqMan probe used in the assay for quantitation: SCN1A Hs00374696_m1 (ThermoFisher), GAPDH Hs02786624_g1 (ThermoFisher). […] SCN1A encodes for the alpha-1 subunit of the voltage-gated sodium channel (Na(V)1.1), and patients with SCN1A loss of function mutations suffers from Dravet syndrome, a neurological disorder.

[5] = test system: SYNGAP1 expression; assay: SYNGAP1 expression by qPCR after transfection of HEK293T cells; format: cell-based, human; details: 200 nM, 48 hours
Method: SYNGAP1 ASO1-JQ1 to SYNGAP1 ASO4-JQ1 were transfected to HEK293T cells at 200, and 67 nM with RNAiMax. SYNGAP1 ASO-JQ1:RNAiMax ratios in transfection are: 200 nM:0.6 ul, 67 nM:0.2 ul. Cells were harvested 48 hours after transfection and SYNGAP1 expression changes was monitored by qPCR. TaqMan probe used in the assay for quantitation: SYNGAP1: Assay ID Hs00405348_m1 (ThermoFisher), ACTB Assay ID Hs01060665_g1(ThermoFisher).

[6] = HEK293T, 400, 133, 44, 15 nM, 24 hours

In the case of (-)JQ1, the “weaker biochemical activity as compared to JQ1” value [1] is listed as over 100 x.

With “PVT1 ASO1-JQ1: PVT1 ASO1 (SEQ ID NO: 7) conjugated to JQ1 with linker 2 (eG*eT*eA*eA*eG*eT*eG*eG*eA*eA*eT*eT*e[5mC]*e[5mC]*eA*eG*eT*eT*eG; JQ1 conjugated via linker 2, further chemistry not fully specified)” the “MYC response at top dose of titration” value ([2]; HEK293T, 200 nM, 24 hours) was “slight decrease of MYC response”, the “MYC expression change upon dose titration” value ([2]; HEK293T, 200, 100, 50, 25, 12.5, 6.25, 3.125 nM, 24 hours) was “dose dependent response” and the “MYC expression change (RNA transcripts)” value ([2]; HEK293T, 400, 200, 100, 50 nM, 24 hours) was “increase of MYC RNA transcripts”. The “MYC expression change, linker comparison” value ([2]; HEK293T, 24 hours) was “both active and increased MYC expression to similar levels”, the “increase in MYC expression” value ([2]; HEK293T, transfected at 400, 200, 100, 50 nM, harvested after 24 hours) was “about 4 fold” and the “MYC protein level increase” value [3] was “about 2 fold”.

In the case of “PVT1 ASO24-JQ1: PVT1 ASO24 (SEQ ID NO: 30) conjugated to JQ1 with linker 2 (CATTGAAGGATCATGGTCAT; conjugated to JQ1 via linker 2, modification pattern not given here)”, the MYC expression change [2, 6] is reported as “increased MYC expression level similar to PVT1 ASO1-JQ1”.

For “PVT1 ASO25-JQ1: PVT1 ASO25 (SEQ ID NO: 31) conjugated to JQ1 with linker 2 (TTATAGACTAGATTGGCCAG; conjugated to JQ1 via linker 2, modification pattern not given here)”, the MYC expression change [2, 6] was “increased MYC expression level similar to PVT1 ASO1-JQ1”.

With “PVT1-ASO1-Linker1-JQ1: PVT1 ASO1 (SEQ ID NO: 7) conjugated to JQ1 with linker 1 (eG*eT*eA*eA*eG*eT*eG*eG*eA*eA*eT*eT*e[5mC]*e[5mC]*eA*eG*eT*eT*eG; JQ1 conjugated via linker 1, further chemistry not fully specified)” the “MYC expression change, linker comparison” value ([2]; HEK293T, 24 hours) was “both active and increased MYC expression to similar levels”.

In the case of “PVT1-Scr1: JQ1 conjugate of partially scrambled PVT1 ASO1 sequence scr1 (SEQ ID NO: 63) (eT*eG*eA*eA*eG*eT*eG*eG*eA*eA*eT*eT*e[5mC]*e[5mC]*eA*eG*eT*eT*eG; JQ1 conjugate, further chemistry not fully specified)”, the MYC expression change ([2]; HEK293T, 100 nM, 24 hours) is reported as “less impact on the activities”.

For “PVT1-Scr4: JQ1 conjugate of partially scrambled PVT1 ASO1 sequence scr4 (SEQ ID NO: 66) (eG*eT*eA*eA*eG*eT*eG*eG*eA*eA*eT*eT*e[5mC]*e[5mC]*eA*eT*eT*eG*eG; JQ1 conjugate, further chemistry not fully specified)”, the MYC expression change ([2]; HEK293T, 100 nM, 24 hours) was “less impact on the activities”.

With “PVT1-Scr8: JQ1 conjugate of partially scrambled PVT1 ASO1 sequence scr8 (SEQ ID NO: 70) (eG*eT*eA*eA*eG*eT*eG*eG*eA*eA*eT*eT*e[5mC]*e[5mC]*eA*eT*eG*eG*eT; JQ1 conjugate, further chemistry not fully specified)” the MYC expression change ([2]; HEK293T, 100 nM, 24 hours) was “less impact on the activities”.

For “SCN1A ASO1-JQ1: SCN1A ASO1 (SEQ ID NO: 46), 5′ Azide-N modified LNA mixmer, conjugated to JQ1 with linker 1 (AGTAAGACTGGGGTTGTT; 5' azide, LNA mixmer, JQ1 via linker 1, chemistry not fully specified)”, the “increase in SCN1A expression” value [4] was “about 2 fold”.

In the case of “SYNGAP1 ASO2-JQ1: SYNGAP1 ASO2 (SEQ ID NO: 48) conjugated to JQ1 using Linker 2 (ATCACCTCCTATAGCTCCT; 5' amino modified, conjugated to JQ1 via linker 2, further chemistry not given here)”, the “increase in SYNGAP1 expression” value [5] is reported as “about 2 fold”.
